In brackets after ≈: the same amount, converted by molar mass.
Test system: Escherichia coli
Test: Antimicrobial activity against Escherichia coli HS294
Format: functional
Conditions: not given; call rule not given here

MIC	Compound
1.6 µg/mL (≈ 4.13 µM)	CC(C)(CO)Cn1c(NCc2ccccc2Cl)nc2nc(C(N)=O)ccc21
0.2 µg/mL (≈ 0.424 µM)	NC(=O)c1cc([N+](=O)[O-])c2c(c1)nc(NCc1ccccc1Cl)n2C[C@H]1CCCCC[C@H]1O
0.4 µg/mL (≈ 0.791 µM)	NC(=O)c1cc(Br)c2c(c1)nc(NCc1ccccc1Cl)n2C[C@H]1CCCCC[C@H]1O
12.5 µg/mL (≈ 25.6 µM)	C[S+]([O-])c1cc(C(N)=O)cc2nc(NCc3ccccc3Cl)n(C[C@H]3CCCCC[C@H]3O)c12 (some centres undefined)
1.6 µg/mL (≈ 3.17 µM)	CS(=O)(=O)c1cc(C(N)=O)cc2nc(NCc3ccccc3Cl)n(C[C@H]3CCCCC[C@H]3O)c12
0.8 µg/mL (≈ 1.91 µM)	NC(=O)c1ccc2c(n1)nc(NCc1ccccc1Cl)n2[C@@H]1CCc2ccccc21

Test system: not listed separately
Test: Inhibition of Escherichia coli HS294 ACCase
Conditions: not given

IC50	Compound
Not Active	COc1cc(Cc2cnc(N)nc2N)cc(OC)c1OC [TRIMETHOPRIM]

Same assay, conditions: read-out: IC50

IC50	Compound
28000 nM	Cc1ccccc1CNc1nc2cc(C(N)=O)ccc2n1CC1CCCCC1
2100 nM	NC(=O)c1cc(S(=O)(=O)NCc2ccc(Cl)cc2)c2c(c1)nc(NCc1ccccc1Cl)n2C[C@H]1CCCCC[C@H]1O
> 20000 nM	CNC(=O)c1ccc2c(c1)nc(NCc1ccccc1Cl)n2CC1CCCCC1
700 nM	CC(C)(CO)Cn1c(NCc2ccccc2Cl)nc2cc(C(N)=O)ccc21
16900 nM	NC(=O)c1ccc2c(c1)nc(NCc1ccccc1F)n2CC1CCCCC1
143000 nM	NC(=O)c1ccc2c(c1)nc(NCc1ccccc1Br)n2CC1CCCCC1
144000 nM	NC(=O)c1ccc2c(c1)nc(NCc1ccccc1C(F)(F)F)n2CC1CCCCC1
160 nM	NC(=O)c1ccc2c(n1)nc(NCc1ccccc1Cl)n2CC1CCCCC1
270 nM	C[C@H](O)Cn1c(NCc2ccccc2Cl)nc2nc(C(N)=O)ccc21
20 nM	CC(C)(CO)Cn1c(NCc2ccccc2Cl)nc2nc(C(N)=O)ccc21
190 nM	NC(=O)c1ccc2c(n1)nc(NCc1ccccc1Cl)n2CCCO
1600 nM	NC(=O)c1cc(Cl)c2c(c1)nc(NCc1ccccc1Cl)n2CC1CCCCC1
90 nM	NC(=O)c1cc([N+](=O)[O-])c2c(c1)nc(NCc1ccccc1Cl)n2[C@H]1CCc2ccccc21
3500 nM	Cn1c(NCc2ccccc2Cl)nc2cc(C(N)=O)cc([N+](=O)[O-])c21
130 nM	NC(=O)c1ccc2c(n1)nc(NCc1ccccc1Cl)n2C1CCCCC1
2060 nM	C[C@@H](c1ccccc1)n1c(NCc2ccccc2Cl)nc2nc(C(N)=O)ccc21
170 nM	NC(=O)c1ccc2c(n1)nc(NCc1ccccc1Cl)n2Cc1ccccc1
5000 nM	NC(=O)c1cc(N)c2c(c1)nc(NCc1ccccc1Cl)n2C[C@H]1CCCCC[C@H]1O
50000 nM	Cn1c(NCc2ccccc2Cl)nc2cc(C(N)=O)cc(N)c21
10 nM	NC(=O)c1cc([N+](=O)[O-])c2c(c1)nc(NCc1ccccc1Cl)n2C[C@H]1CCCCC[C@H]1O
800 nM	CC(C)CCNS(=O)(=O)c1cc(C(N)=O)cc2nc(NCc3ccccc3Cl)n(C[C@H]3CCCCC[C@H]3O)c12
130 nM	NC(=O)c1cc(Br)c2c(c1)nc(NCc1ccccc1Cl)n2C[C@H]1CCCCC[C@H]1O
170 nM	CSc1cc(C(N)=O)cc2nc(NCc3ccccc3Cl)n(C[C@H]3CCCCC[C@H]3O)c12
260 nM	C[S+]([O-])c1cc(C(N)=O)cc2nc(NCc3ccccc3Cl)n(C[C@H]3CCCCC[C@H]3O)c12 (some centres undefined)
41000 nM	C[C@H](Nc1nc2cc(C(N)=O)ccc2n1CC1CCCCC1)c1ccccc1
3010 nM	NC(=O)c1ccc2c(n1)nc(NCc1ccccc1Cl)n2CC(O)COc1ccccc1 (centres undefined)

IC50	Compound
2750 nM	NC(=O)c1ccc2c(n1)nc(NCc1ccccc1Cl)n2Cc1ccc2c(c1)OCCO2
700 nM	NC(=O)c1cc(S(N)(=O)=O)c2c(c1)nc(NCc1ccccc1Cl)n2C[C@H]1CCCCC[C@H]1O
380 nM	CNS(=O)(=O)c1cc(C(N)=O)cc2nc(NCc3ccccc3Cl)n(C[C@H]3CCCCC[C@H]3O)c12
40000 nM	NC(=O)c1ccc2c(n1)nc(NCc1ccccc1Cl)n2Cc1cccc(OC(F)(F)F)c1
350 nM	CC(C)(C)OCCCn1c(NCc2ccccc2Cl)nc2nc(C(N)=O)ccc21
241000 nM	NC(=O)c1ccc2c(c1)nc(NCc1c(Cl)cccc1Cl)n2CC1CCCCC1
40000 nM	NC(=O)c1ccc2c(c1)nc(NCc1cccc(Cl)c1)n2CC1CCCCC1
63000 nM	NC(=O)c1ccc2c(c1)nc(NCc1ccc(Cl)cc1)n2CC1CCCCC1
171000 nM	NC(=O)c1ccc2c(c1)nc(NCc1cccc3ccccc13)n2CC1CCCCC1
60 nM	CS(=O)(=O)c1cc(C(N)=O)cc2nc(NCc3ccccc3Cl)n(C[C@H]3CCCCC[C@H]3O)c12
2840 nM	COc1ccccc1Cn1c(NCc2ccccc2Cl)nc2nc(C(N)=O)ccc21
300 nM	NC(=O)c1ccc2c(n1)nc(NCc1ccccc1Cl)n2CC1COc2ccccc2O1 (centres undefined)
100 nM	CC(C)S(=O)(=O)c1cc(C(N)=O)cc2nc(NCc3ccccc3Cl)n(C[C@H]3CCCCC[C@H]3O)c12
139000 nM	COc1ccccc1CNc1nc2cc(C(N)=O)ccc2n1CC1CCCCC1
400 nM	NC(=O)c1ccc2c(c1)nc(NCc1ccccc1Cl)n2CC[C@H](O)CO
500 nM	NC(=O)c1ccc2c(c1)nc(NCc1ccccc1Cl)n2C[C@H]1CCCCC[C@H]1O
2000 nM	NC(=O)c1ccc2c(c1)nc(NCc1ccccc1Cl)n2CCCO
20 nM	NC(=O)c1ccc2c(n1)nc(NCc1ccccc1Cl)n2[C@@H]1CCc2ccccc21
15800 nM	NC(=O)c1ccc2c(c1)nc(NCc1ccccc1)n2CC1CCCCC1
5000 nM	NC(=O)c1ccc2c(c1)nc(NCc1ccccc1Cl)n2CC1CCCCC1
700 nM	NC(=O)c1ccc2c(c1)nc(NCc1ccccc1Cl)n2[C@@H]1CCc2ccccc21
1300 nM	NC(=O)c1ccc2c(c1)nc(NCc1ccccc1Cl)n2[C@H]1CCCc2ccccc21
9500 nM	NC(=O)c1ccc2c(c1)nc(NCc1ccccc1Cl)n2CCc1c[nH]c2ccccc12
8900 nM	NC(=O)c1ccc2c(c1)nc(NCc1ccccc1Cl)n2CCc1ccccc1
2100 nM	CC1CCCCC1n1c(NCc2ccccc2Cl)nc2cc(C(N)=O)ccc21 (centres undefined)
14700 nM	NC(=O)c1ccc2c(c1)nc(NCc1ccccc1Cl)n2[C@H]1CCc2ccccc21
